Measured values published in patent US20070148643A1, “Treatment of Huntington's Disease with EPA” (priority 2002, published 2007).

What was measured:
[1] = tested on: severely disabled patients in the final stages of Huntington's disease; conditions: 2 g/day, 6 months, cited from earlier work
[2] = tested on: patients with genetically-confirmed HD; assay: one year randomised placebo-controlled trial of ethyl-EPA in HD, total motor score (TMS) subscale of the UHDRS; type: in vivo, human
Procedure: 135 patients with genetically-confirmed HD were entered into a one year trial. They were randomised to receive either 2 g/day of ethyl-EPA or an identical-appearing placebo. They were evaluated at baseline, six months and 12 months on the total motor score (TMS) subscale of the Unified Huntington's Disease Rating Scale (UHDRS). The UHDRS is the standard rating scale which is used to monitor the development of HD. The TMS is the component of the UHDRS which changes most reliably, rapidly and consistently and is therefore appropriate for monitoring the outcome of clinical trials. At the end of one year, change in TMS was compared in the placebo group and the ethyl-EPA group. […] However, when patients were stratified on the basis of their CAG repeat numbers, a dramatic benefit of ethyl-EPA was uncovered. […] Placebo patients with CAG repeat numbers 45 and below deteriorated by an average of 5.3%. In contrast, the same group of patients on ethyl-EPA improved over the year by 19.3%. This difference was highly statistically significant on either analysis of covariance or on chi square testing. […] Previously the best that had been hoped for in neurodegenerative diseases like HD was a slowing of deterioration rather than any actual improvement. […] Putting it another way, the treated patients had gained at least four and a half years of useful life.

SMILES: CC/C=C\C/C=C\C/C=C\C/C=C\C/C=C\CCCC(=O)OCC [ethyl-EPA, ethyl ester of eicosapentaenoate]
- clinical course (abnormal movements, emotional lability and irritability, memory and cognitive function) ([1]; three patients on ethyl-EPA, four on placebo): all three patients who improved were found to be taking ethyl-EPA
- lateral ventricle size by MRI ([1]; two patients on ethyl-EPA, beginning versus end of study): reduction in lateral ventricle size
- proportion of patients improving on TMS ([2]; 2 g/day, CAG repeats 45 and below): great majority of patients on ethyl-EPA actually improved
- improvement in TMS over the year, patients with CAG repeat numbers 45 and below ([2]; 2 g/day, CAG repeats 45 and below, placebo deteriorated by 5.3%): 19.3%
- benefit versus placebo, patients with CAG repeat numbers of 45 or below ([2]; 2 g/day, CAG repeats 45 or below (below 45)): large benefit
- change in TMS versus placebo, patients with CAG repeat number of 46 or more ([2]; 2 g/day, CAG repeats 46 or more): did not show any difference at all between placebo and ethyl-EPA
- change in TMS versus placebo, all patients ([2]; 2 g/day, all patients (not stratified)): better outcome on ethyl-EPA than on placebo but this was not statistically significant
- improvement relative to the change in patients on placebo over one year ([2]; CAG repeats 45 and below): more than three and a half times more
- separation of EPA and placebo patients in years of disease progression after one year ([2]; CAG repeats 45 and below): more than four and a half years
